Test results from patent US20240287138A1, “CYCLIC PEPTIDES FOR INHIBITING TNF RECEPTOR 1 ACTIVITY” (Merck Sharp & Dohme LLC, priority 2023, published 2024).
Numbered stars: 1 amine (or outer) side, 2 acyl side, 3 side chain; on linkers, the order of the positions; unused ones are H or OH. Square brackets hold non-standard residues; d marks the D form. Peptide text beside a SMILES is read from it. * marks the point of attachment. Trp(βS-Me,7-OMe) = COc1cccc2c([C@H](C)[C@H](N)C(=O)O)c[nH]c12; dPro(trans-4-NMe3+) = C[N+](C)(C)[C@@H]1CN[C@@H](C(=O)O)C1; Phe(4-SO2NH2) = N[C@@H](Cc1ccc(S(N)(=O)=O)cc1)C(=O)O; Ala(indazol-1-yl) = N[C@@H](Cn1ncc2ccccc21)C(=O)O; Trp(7-CN) = N#Cc1cccc2c(C[C@H](N)C(=O)O)c[nH]c12; Trp(7-Cl) = N[C@@H](Cc1c[nH]c2c(Cl)cccc12)C(=O)O; Ala(pyrimidin-5-yl) = N[C@@H](Cc1cncnc1)C(=O)O; Phe(3-CONH2) = NC(=O)c1cccc(C[C@H](N)C(=O)O)c1; Phe(4-CONH2) = NC(=O)c1ccc(C[C@H](N)C(=O)O)cc1; Phe(4-COOH) = N[C@@H](Cc1ccc(C(=O)O)cc1)C(=O)O; 4Pal(3S-Me) = C[C@@H](c1ccncc1)[C@H](N)C(=O)O; X63 = O=C([C@@H]1CC[C@H](O)CN1[*:1])[*:2]; Pip(5R-OH) = O=C(O)[C@@H]1CC[C@@H](O)CN1; X1 = O=C([C@@H]1CC[C@H](N[*:1])C1)[*:2]; Lys(Me2) = CN(C)CCCC[C@H](N)C(=O)O; 4Pal = N[C@@H](Cc1ccncc1)C(=O)O; NMeE = CN[C@@H](CCC(=O)O)C(=O)O; dHyp = O=C(O)[C@H]1C[C@H](O)CN1; aThr = C[C@H](O)[C@H](N)C(=O)O; Ahp(2) = CCCCC[C@H](N)C(=O)O; αMeS = C[C@](N)(CO)C(=O)O; Carboxymethyl = O=C(O)C*; Nle = CCCC[C@H](N)C(=O)O; Sar = CNCC(=O)O

Key:
[1] = target: T1, TNFα-induced NF-κB signal transduction pathway (TNFR1 signaling) in THP-1 cells (Homo sapiens, UniProt P19438); assay: THP-1 Lucia NF-κB reporter cell assay, inhibition of TNFα-induced NF-κB signaling; assay type: cell-based; details: THP-1 NF-κB Lucia reporter cells, 10 ng/mL TNFα, 16-18 h, secreted luciferase; read-out: THP-1 IC50
T1 sequence (P19438 30-455): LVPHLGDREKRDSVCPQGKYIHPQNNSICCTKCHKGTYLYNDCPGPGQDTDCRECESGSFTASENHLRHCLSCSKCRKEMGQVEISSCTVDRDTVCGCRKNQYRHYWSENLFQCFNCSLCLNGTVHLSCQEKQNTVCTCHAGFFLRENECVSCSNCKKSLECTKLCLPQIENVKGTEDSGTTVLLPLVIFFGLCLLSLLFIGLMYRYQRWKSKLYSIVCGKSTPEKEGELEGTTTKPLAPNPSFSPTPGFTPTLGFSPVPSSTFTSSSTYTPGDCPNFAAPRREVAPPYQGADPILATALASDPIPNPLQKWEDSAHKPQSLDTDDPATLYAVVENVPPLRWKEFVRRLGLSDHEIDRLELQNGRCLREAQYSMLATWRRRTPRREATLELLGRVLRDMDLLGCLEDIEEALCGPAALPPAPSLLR
Procedure, shortened: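 Read-out: secreted Lucia luciferase luminescence (QUANTI-Luc) from supernatant after 16-18 h, 37 °C, 10 ng/mL rhTNFα. Peptide pretreatment 1 h at 37 °C; 20,000 cells/well, selection antibiotics omitted. IC50 via 4-parameter logistic model against min/max controls.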

[2] = target: T2, human soluble TNFR1 (sTNFR1) (Homo sapiens, UniProt P19438); assay: Human sTNFR1-peptide displacement assay (LanthaScreen Eu TR-FRET binding assay)
T2 construct: made in house; host or cells: Sf21 (baculovirus)
T2 sequence (P19438 with tags, fused parts or gaps): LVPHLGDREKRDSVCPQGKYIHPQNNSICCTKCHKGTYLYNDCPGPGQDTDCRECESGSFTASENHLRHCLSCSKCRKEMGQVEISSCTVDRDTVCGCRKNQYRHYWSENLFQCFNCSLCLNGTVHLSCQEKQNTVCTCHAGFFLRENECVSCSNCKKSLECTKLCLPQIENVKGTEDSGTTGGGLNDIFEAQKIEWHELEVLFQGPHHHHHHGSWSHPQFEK
Method: A. Procedure for Human sTNFR1-Peptide Displacement Assay
The affinity was determined using LanthaScreen Eu-based time-resolved fluorescence resonance energy transfer (TR-FRET)-based binding assay.
A TR-FRET assay measuring the displacement of biotinylated peptide SEQ ID NO. 1 from human soluble TNFR1 (sTNFR1) in a pre-formed complex by a macrocyclic peptide yields the affinity (Kd^app) of the cyclic peptide for sTNFR1. The reagents for the assay include: the C′-terminally 6His-tagged sTNFR1 (residues 1-211) protein purified from a Sf21 baculovirus expression system, the biotin-tagged B0372 peptide described in section “Preparation of Final Compounds”, part E, the LanthaScreen™ anti-His Tag Europium donor (Life Technologies Corporation (San Diego, CA), cat. #PV5597), and a streptavidin-conjugate Alexa Fluor™ 647 acceptor (Invitrogen (Waltham, MA), cat. #S32357). Time-resolved TR-FRET is achieved when sTNFR1 is bound to biotinylated peptide SEQ ID NO. 1 through coupling of the donor and acceptor FRET pair.
100 nM biotinylated peptide SEQ ID NO. […] 100 nM biotinylated peptide SEQ ID NO. 1 was chosen as it reflects the ˜Kd for this complex. After 30 min at ambient temperature, each test peptide (2 mM stock in DMSO) is titrated in a 20 point, ˜3-fold discrete dose-response using an acoustic-dispense liquid handler. Specifically, 80 nL of peptide/DMSO is transferred into a ProxiPlate-384 Plus 384-well assay plate (PerkinElmer, cat. #6008289). To this plate, 8 μL of the previously formed sTNFR 1-biotinylated peptide SEQ ID NO. 1 complex is added and allowed to reach binding equilibrium with the test peptide at ambient temperature for 90 min.
The TR-FRET signal is measured with the following EnVision® settings: excitation laser at 337 nm; emission1=615 nm, emission2=665 nm, LANCE/DELFIA dichroic mirror, delay time=[…]. The signal of each well is determined as the ratio of the emission at 665 nm to that at 615 nm. Percent displacement is determined by normalization to control wells containing DMSO (0%) or a saturating concentration of a displaceable peptide (100%). The %-effect as a function of peptide concentration is fit to a five-parameter logistic fit based on the Morrison equation to account for tight binding kinetics.

| SMILES | IC50 [1] [nM] | Kd [2] [nM] |
| --- | --- | --- |
| CCCC[C@@H]1NC(=O)[C@@H]2CC[C@@H](C2)NC(=O)[C@H]([C@@H](C)c2c[nH]c3c(OC)cccc23)NC(=O)CN(C)C(=O)[C@H](Cc2ccc(OCC(=O)O)cc2)NC(=O)[C@H](Cc2ccc(S(N)(=O)=O)cc2)NC(=O)[C@](C)(CO)NC(=O)[C@H](Cc2c[nH]c3c(C#N)cccc23)NC(=O)[C@H](Cc2ccc(OCC(=O)O)cc2)NC(=O)[C@H](CC(N)=O)NC(=O)[C@H]2C[C@H]([N+](C)(C)C)CN2C(=O)[C@H](Cn2ncc3ccccc32)NC(=O)[C@@H]2CC[C@@H](O)CN2C(=O)[C@H](Cc2cncnc2)NC1=O [SEQ ID NO. 43] (cyclo(NY(Carboxymethyl)[Trp(7-CN)][αMeS][Phe(4-SO2NH2)]Y(Carboxymethyl)[Sar][Trp(βS-Me,7-OMe)][X1][Nle][Ala(pyrimidin-5-yl)][Pip(5R-OH)][Ala(indazol-1-yl)][dPro(trans-4-NMe3+)])) | 0.6 | 0.09 |
| CCCCC[C@@H]1NC(=O)[C@@H]2CC[C@@H](C2)NC(=O)[C@H]([C@@H](C)c2c[nH]c3c(OC)cccc23)NC(=O)CN(C)C(=O)[C@H](Cc2ccc(C(N)=O)cc2)NC(=O)[C@H](Cc2ccc(C(N)=O)cc2)NC(=O)[C@](C)(CO)NC(=O)[C@H](Cc2c[nH]c3c(C#N)cccc23)NC(=O)[C@H](Cc2ccc(C(=O)O)cc2)NC(=O)[C@H](CC(N)=O)NC(=O)[C@H]2C[C@H](O)CN2C(=O)[C@H](Cc2c[nH]c3ccccc23)NC(=O)[C@H]([C@H](C)O)NC(=O)[C@H]([C@@H](C)c2ccncc2)NC1=O [SEQ ID NO. 91] (cyclo([Ahp(2)][4Pal(3S-Me)][aThr]W[dHyp]N[Phe(4-COOH)][Trp(7-CN)][αMeS][Phe(4-CONH2)][Phe(4-CONH2)][Sar][Trp(βS-Me,7-OMe)][X1])) | 0.9 | 0.24 |
| CCCC[C@@H]1NC(=O)[C@@H]2CC[C@@H](C2)NC(=O)[C@H]([C@@H](C)c2c[nH]c3c(OC)cccc23)NC(=O)CN(C)C(=O)[C@H](Cc2cccc(C(N)=O)c2)NC(=O)[C@H](Cc2ccc(C(N)=O)cc2)NC(=O)[C@](C)(CO)NC(=O)[C@H](Cc2c[nH]c3c(Cl)cccc23)NC(=O)[C@H](Cc2ccncc2)NC(=O)[C@H](CC(N)=O)NC(=O)[C@H]2C[C@H](O)CN2C(=O)[C@H](Cc2c[nH]c3ccccc23)NC(=O)[C@@H]2CC[C@H](O)CN2C(=O)[C@H](Cc2ccncc2)NC1=O [SEQ ID NO. 67] (cyclo([4Pal][Trp(7-Cl)][αMeS][Phe(4-CONH2)][Phe(3-CONH2)][Sar][Trp(βS-Me,7-OMe)][X1][Nle][4Pal][X63]W[dHyp]N)) | 0.4 | 0.2 |
| COc1cccc2c([C@H](C)[C@@H]3NC(=O)CN(C)C(=O)[C@H](Cc4ccc(O)cc4)NC(=O)[C@H](Cc4ccc(C(N)=O)cc4)NC(=O)[C@](C)(CO)NC(=O)[C@H](Cc4c[nH]c5c(Cl)cccc45)NC(=O)[C@H](Cc4ccncc4)NC(=O)[C@H](CC(N)=O)NC(=O)[C@H](CCC(=O)O)N(C)C(=O)[C@H](Cc4c[nH]c5ccccc45)NC(=O)[C@@H]4CC[C@@H](O)CN4C(=O)[C@H](Cc4ccncc4)NC(=O)[C@H](CCCCN(C)C)NC(=O)[C@@H]4CC[C@@H](C4)NC3=O)c[nH]c12 [SEQ ID NO. 238] (cyclo([4Pal][Trp(7-Cl)][αMeS][Phe(4-CONH2)]Y[Sar][Trp(βS-Me,7-OMe)][X1][Lys(Me2)][4Pal][Pip(5R-OH)]W[NMeE]N)) | 0.7 | 0.12 |
